Test results taken from ChEMBL document CHEMBL1201862, “PubChem BioAssay data set” (2004).
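Cells were grown in 96-well plates and exposed to each compound for 48 hours at five concentrations; endpoints were interpolated linearly between bracketing concentrations, or set to the highest concentration if not reached. Abbreviation: GI50, concentration required for 50% inhibition of growth.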 Calls of active or inactive are those of the source. Cut-off read from the data, not from the text of the source: active = GI50 up to about 1.1 µM and inactive = higher.

Tests used:
Assay in all cases: NCI tumour cell line growth inhibition, 48 h
[1] = system: 786-0
[2] = system: A498
[3] = system: A549
[4] = system: ACHN
[5] = system: CAKI-1
[6] = system: CCRF-CEM
[7] = system: COLO 205
[8] = system: DLD-1
[9] = system: DMS-114
[10] = system: DMS-273
[11] = system: EKVX
[12] = system: HCC 2998
[13] = system: HCT-116
[14] = system: HCT-15
[15] = system: HL-60
[16] = system: HOP-18
[17] = system: HOP-62
[18] = system: HOP-92
[19] = system: HT-29
[20] = system: IGROV-1
[21] = system: K562
[22] = system: KM-20L2
[23] = system: KM12
[24] = system: LXFL 529
[25] = system: M14
[26] = system: M19-MEL
[27] = system: MOLT-4
[28] = system: Malme-3M
[29] = system: NCI-H226
[30] = system: NCI-H23
[31] = system: NCI-H460
[32] = system: NCI-H522
[33] = system: OVCAR-3
[34] = system: OVCAR-4
[35] = system: OVCAR-5
[36] = system: OVCAR-8
[37] = system: RPMI-8226
[38] = system: RXF 393
[39] = system: SF-268
[40] = system: SF-295
[41] = system: SF-539
[42] = system: SK-MEL-28
[43] = system: SK-MEL-2
[44] = system: SK-MEL-5
[45] = system: SK-OV-3
[46] = system: SN12C
[47] = system: SNB-19
[48] = system: SNB-75
[49] = system: SNB-78
[50] = system: SR
[51] = system: SW-620
[52] = system: TK-10
[53] = system: U-251
[54] = system: UACC-257
[55] = system: UACC-62
[56] = system: UO-31
[57] = system: XF498
[58] = system: BT-549
[59] = system: DU-145
[60] = system: Hs-578T
[61] = system: LOX IMVI
[62] = system: MCF7
[63] = system: MDA-MB-231
[64] = system: MDA-MB-435
[65] = system: MDA-N
[66] = system: PC-3
[67] = system: T47D

Compound: Cc1cccc(C)c1NC(=O)CCC(=O)CC(=O)C(C)C
- GI50 [1]: > 100 µM (inactive)
- GI50 [2]: > 100 µM (inactive)
- GI50 [3]: > 100 µM (inactive)
- GI50 [4]: > 100 µM (inactive)
- GI50 [5]: > 100 µM (inactive)
- GI50 [6]: > 100 µM (inactive)
- GI50 [7]: > 100 µM (inactive)
- GI50 [8]: > 100 µM (inactive)
- GI50 [9]: > 100 µM (inactive)
- GI50 [10]: > 100 µM (inactive)
- GI50 [11]: > 100 µM (inactive)
- GI50 [12]: > 100 µM (inactive)
- GI50 [13]: > 100 µM (inactive)
- GI50 [14]: > 100 µM
- GI50 [15]: > 100 µM (inactive)
- GI50 [16]: > 100 µM (inactive)
- GI50 [17]: > 100 µM (inactive)
- GI50 [18]: > 100 µM (inactive)
- GI50 [19]: > 100 µM (inactive)
- GI50 [20]: > 100 µM (inactive)
- GI50 [21]: > 100 µM (inactive)
- GI50 [22]: > 100 µM (inactive)
- GI50 [23]: > 100 µM (inactive)
- GI50 [24]: > 100 µM (inactive)
- GI50 [25]: > 100 µM (inactive)
- GI50 [26]: > 100 µM (inactive)
- GI50 [27]: > 100 µM (inactive)
- GI50 [28]: > 100 µM (inactive)
- GI50 [29]: > 100 µM (inactive)
- GI50 [30]: > 100 µM (inactive)
- GI50 [31]: > 100 µM (inactive)
- GI50 [32]: > 100 µM (inactive)
- GI50 [33]: > 100 µM (inactive)
- GI50 [34]: > 100 µM (inactive)
- GI50 [35]: > 100 µM (inactive)
- GI50 [36]: > 100 µM (inactive)
- GI50 [37]: > 100 µM (inactive)
- GI50 [38]: > 100 µM (inactive)
- GI50 [39]: > 100 µM (inactive)
- GI50 [40]: > 100 µM (inactive)
- GI50 [41]: > 100 µM (inactive)
- GI50 [42]: > 100 µM (inactive)
- GI50 [43]: > 100 µM (inactive)
- GI50 [44]: > 100 µM (inactive)
- GI50 [45]: > 100 µM (inactive)
- GI50 [46]: > 100 µM (inactive)
- GI50 [47]: > 100 µM (inactive)
- GI50 [48]: > 100 µM (inactive)
- GI50 [49]: > 100 µM (inactive)
- GI50 [50]: > 100 µM (inactive)
- GI50 [51]: > 100 µM (inactive)
- GI50 [52]: > 100 µM (inactive)
- GI50 [53]: > 100 µM (inactive)
- GI50 [54]: > 100 µM (inactive)
- GI50 [55]: > 100 µM (inactive)
- GI50 [56]: > 100 µM (inactive)
- GI50 [57]: > 100 µM (inactive)

Compound: Cc1ccc(/C=C2\CNC/C(=C\c3ccc(C)cc3)C2=O)cc1
- GI50 [1]: 1.35 µM (inactive)
- GI50 [2]: 1.89 µM (inactive)
- GI50 [3]: 2.83 µM (inactive)
- GI50 [4]: 2.19 µM (inactive)
- GI50 [58]: 2.24 µM (inactive)
- GI50 [5]: 2.46 µM (inactive)
- GI50 [6]: 0.689 µM (active)
- GI50 [7]: 2.13 µM (inactive)
- GI50 [8]: 0.34 µM (active)
- GI50 [9]: 1.86 µM (inactive)
- GI50 [10]: 1.24 µM (inactive)
- GI50 [59]: 4.48 µM (inactive)
- GI50 [11]: 3.92 µM (inactive)
- GI50 [12]: 1.67 µM (inactive)
- GI50 [13]: 0.313 µM (active)
- GI50 [14]: 1.49 µM
- GI50 [15]: 0.479 µM (active)
- GI50 [16]: > 10 µM (inactive)
- GI50 [17]: 2.72 µM (inactive)
- GI50 [18]: 4.54 µM (inactive)
- GI50 [19]: 0.617 µM (active)
- GI50 [60]: 1.89 µM (inactive)
- GI50 [20]: 1.9 µM (inactive)
- GI50 [21]: 0.323 µM (active)
- GI50 [22]: 1.32 µM (inactive)
- GI50 [23]: 1.05 µM (active)
- GI50 [61]: 0.615 µM (active)
- GI50 [24]: 1.28 µM (inactive)
- GI50 [25]: 2.26 µM (inactive)
- GI50 [26]: 1.57 µM (inactive)
- GI50 [62]: 0.513 µM (active)
- GI50 [63]: 2.91 µM (inactive)
- GI50 [64]: 3.03 µM (inactive)
- GI50 [65]: 2.49 µM (inactive)
- GI50 [27]: 2.22 µM (inactive)
- GI50 [28]: 14.4 µM (inactive)
- GI50 [29]: 1.84 µM (inactive)
- GI50 [30]: 1.83 µM (inactive)
- GI50 [31]: 1.48 µM (inactive)
- GI50 [32]: 1.87 µM (inactive)
- GI50 [33]: 2.96 µM (inactive)
- GI50 [34]: 2.34 µM (inactive)
- GI50 [35]: 3.87 µM (inactive)
- GI50 [36]: 2.19 µM (inactive)
- GI50 [66]: 2.62 µM (inactive)
- GI50 [37]: 0.248 µM (active)
- GI50 [39]: 2.53 µM (inactive)
- GI50 [40]: 3.54 µM (inactive)
- GI50 [41]: 2.2 µM (inactive)
- GI50 [42]: 2.04 µM (inactive)
- GI50 [43]: 9.02 µM (inactive)
- GI50 [44]: 2.43 µM (inactive)
- GI50 [45]: 2.4 µM (inactive)
- GI50 [46]: 2.52 µM (inactive)
- GI50 [47]: 1.65 µM (inactive)
- GI50 [48]: 22.9 µM (inactive)
- GI50 [49]: > 100 µM (inactive)
- GI50 [50]: 0.44 µM (active)
- GI50 [51]: 1.12 µM (inactive)
- GI50 [67]: 2.65 µM (inactive)
- GI50 [52]: 5.48 µM (inactive)
- GI50 [53]: 0.341 µM (active)
- GI50 [54]: 6.46 µM (inactive)
- GI50 [55]: 2.04 µM (inactive)
- GI50 [56]: 1.77 µM (inactive)
- GI50 [57]: 2.59 µM (inactive)
